The test system of assay [1] is E. coli ATCC 25922 (SEN) and E. coli NCTC13846 (MDR). Put plainly: Adaptive laboratory evolution (ALE), relative MIC of evolved lines. It is filed as cell-based, Escherichia coli. In short, it runs like this: (§1)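 Ten parallel populations per antibiotic–ancestor pair were evolved in MHB at 37 °C, starting near 50% growth-inhibiting drug. Every 72 h they were passaged into 0.5–2.5× increasing concentrations, keeping the highest-drug well with OD600 > 0.2.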

Assay [2] deals with K. pneumoniae ATCC 10031 (SEN) and K. pneumoniae ATCC 700603 (MDR). The assay is described as above. It is filed as cell-based, Klebsiella pneumoniae. In short, it runs like this: as §1

Where a SMILES comes first, the peptide text is derived from it. Bridges are numbered along the chain shown (N, C = ends). [ ]: non-standard residue; d: D form. The star is where a group is joined. X2 = CC[C@H](C)CCCCC(=O)*; Dab = NCC[C@H](N)C(=O)O

The values that follow come from PMC11845477, “Exploring the principles behind antibiotics with limited resistance” (Nature Communications, 2025).

For `CC[C@H](C)CCCCC(=O)N[C@@H](CCN)C(=O)N[C@H](C(=O)N[C@@H](CCN)C(=O)N[C@H]1CCNC(=O)[C@H]([C@@H](C)O)NC(=O)[C@H](CCN)NC(=O)[C@H](CCN)NC(=O)[C@H](CC(C)C)NC(=O)[C@@H](Cc2ccccc2)NC(=O)[C@H](CCN)NC1=O)[C@@H](C)O` [Polymyxin B] (X2-[Dab]T[Dab][Dab][Dab][dF]L[Dab][Dab]T; lactam 4-C (inferred); N-terminus assumed), the “Relative MIC (log10)” value is on record as 1.505 log10 in assay [1] (EC-MDR (Escherichia coli NCTC 13846), evolved line 2); 1.204 log10 in assay [1] (EC-MDR (Escherichia coli NCTC 13846), evolved line 5); 1.204 log10 in assay [1] (EC-MDR (Escherichia coli NCTC 13846), evolved line 10); 1.505 log10 in assay [1] (EC-MDR, Escherichia coli NCTC 13846, evolved line 1); 1.204 log10 in assay [1] (EC-MDR, Escherichia coli NCTC 13846, evolved line 6); 2.107 log10 in assay [1] (EC-SEN (Escherichia coli ATCC 25922), evolved line 4). Besides, the “Relative MIC (log10)” value in assay [1] (EC-SEN (Escherichia coli ATCC 25922), evolved line 6) was determined as 2.107 log10; in assay [1] (EC-SEN (Escherichia coli ATCC 25922), evolved line 8), 2.107 log10; in assay [1] (EC-SEN (Escherichia coli ATCC 25922), evolved line 10) it was 2.107 log10; in assay [1] (EC-SEN, Escherichia coli ATCC 25922, evolved line 2), 2.107 log10; in assay [2] (KP-MDR (Klebsiella pneumoniae ATCC 700603), evolved line 3), 2.408 log10; in assay [2] (KP-MDR (Klebsiella pneumoniae ATCC 700603), evolved line 5), 2.408 log10. Also, the “Relative MIC (log10)” value in assay [2] (KP-MDR (Klebsiella pneumoniae ATCC 700603), evolved line 6) is 2.408 log10; in assay [2] (KP-MDR (Klebsiella pneumoniae ATCC 700603), evolved line 9), 2.408 log10; in assay [2] (KP-MDR (Klebsiella pneumoniae ATCC 700603), evolved line 10), 2.408 log10; in assay [2] (KP-SEN (Klebsiella pneumoniae ATCC 10031), evolved line 1), 2.408 log10; in assay [2] (KP-SEN (Klebsiella pneumoniae ATCC 10031), evolved line 2), 2.709 log10; in assay [2] (KP-SEN (Klebsiella pneumoniae ATCC 10031), evolved line 3) it was 2.709 log10. Also, the “Relative MIC (log10)” value in assay [2] (KP-SEN (Klebsiella pneumoniae ATCC 10031), evolved line 9) was 2.709 log10; in assay [2] (KP-SEN, Klebsiella pneumoniae ATCC 10031, evolved line 5) it was 2.709 log10.
